Reference: patent US7919517B2, “Indazole derivatives” (Kyowa Hakko Kirin Co., Ltd., priority 2003, dated 2011)
Structures can show the parent of a compound that is named as a salt.

Assays:
Format in all cases: cell-based
[1] = system: human acute myeloid leukemia cell line MV-4-11; test: Cytostatic activity on leukemia cell line MV-4-11 (WST-1); settings: 72 hours, MV-4-11 cells; for inhibition at 10 µM: Homo sapiens, MV4-11, 10 μmol/L, read-out: cytostatic rate MV-4-11 (%) (10 μmol/L)
Procedure: (§1) The cytostatic rates of a test compound on human acute myeloid leukemia cell lines MV-4-11 and ML-1, and human chronic myeloid leukemia cell line K562 were determined in the following manner.
(§2) Each cell was cultured using Roswell Park Memorial Institute's Medium (RPMI) 1640 (Gibco, Catalog No. 11875-093) containing 10% fetal bovine serum (Gibco, Catalog No. 10437-028) and 1% penicillin/streptomycin (1:1) (Gibco, Catalog No. 15140-122). Each 80 μL of the MV-4-11 cell having a concentration of 7.5×10^4 cells/mL (or the ML-1 cell or K562 cell having a concentration of 2.5×10^4 cells/mL) was inoculated to wells of a TC MICROWELL 96U plate (Nalge Nunc International, Catalog No. 163320) and was cultured in a 5% carbon dioxide gas incubator at 37° C. for 4 hours. As a blank, only RPMI medium (80 μL) was added to a well. Each 20 μL of a solution of the test compound in dimethyl sulfoxide (DMSO) which was prepared to make the final concentration to 10 μmol/L, was added to the MV-4-11 cell, ML-1 cell and K562 cell, respectively. Each 20 μL of DMSO was added to the control well and the blank well to […]. After adding the test compound, the cells were incubated in a 5% carbon dioxide gas incubator at 37° C. for 72 hours. After adding 20 μL of WST-1 reagent {4-[3-(4-iodophenyl)-2-(4-nitrophenyl)-2H-5-tetrazolio]-1,3-benzene disulfonate sodium salt} (Roche Diagnostics K.K., Catalog No. 1644807) diluted to 50% with RPMI medium, the cells were further incubated at 37° C. for 2 hours. Then, the absorbances at 450 nm (reference wavelength: 690 nm) were determined with a microplate spectrophotometer SPECTRA max 340PC (Molecular Devices Corporation). The relative growth (%) of a well to which the test compound had been added was determined while setting the absorbance of a well to which not the test compound but DMSO alone had been added (control) at 100% and that of a well containing RPMI medium alone at 0%. The cytostatic rate (%) of the test compound was determined by subtracting the calculated relative growth from 100.

[2] = system: human acute myeloid leukemia cell line ML-1; test: Cytostatic activity on leukemia cell line ML-1 (WST-1); settings: 72 hours, ML-1 cells; for inhibition at 10 µM: Homo sapiens, ML1, 10 μmol/L, read-out: cytostatic rate ML-1 (%) (10 μmol/L)
Procedure: as §1, §2

[3] = system: human chronic myeloid leukemia cell line K562; test: Cytostatic activity on leukemia cell line K562 (WST-1); settings: 72 hours, K562 cells; for inhibition at 10 µM: Homo sapiens, 10 μmol/L, read-out: cytostatic rate K562 (%) (10 μmol/L)
Procedure: as §1, §2

[4] = system: human colon cancer cell line Colo205; test: Cytostatic activity on solid carcinoma cell line Colo205 (WST-1); settings: Homo sapiens, COLO 205; 10 μmol/L, 72 hours, Colo205 cells; read-out: cytostatic rate Colo205 (%) (10 μmol/L)
Procedure: as §2
The cytostatic rate of a test compound on the human colon cancer cell line Colo205 was determined in the following manner.
The cell was cultured using Roswell Park Memorial Institute's Medium (RPMI) 1640 (Gibco, Catalog No. 11875-093) containing 10% fetal bovine serum (Gibco, Catalog No. 10437-028) and 1% penicillin/streptomycin (1:1) (Gibco, Catalog No. 15140-122). Each 80 μL of the Colo205 having a concentration of 1.25×10^4 cells/mL was inoculated to wells of a TC MICROWELL 96F plate (Nalge Nunc International, Catalog No. 167008) and was cultured in a 5% carbon dioxide gas incubator at 37° C. for 24 hours. As a blank, only RPMI (80 μL) was added to a well. Each 20 μL of a solution of the test compound in DMSO which was prepared to make the final concentration to 10 μmol/L, was added to the Colo205 cell. Each 20 μL of DMSO was added to the control well and the blank well to […]. After adding the test compound, the cell was incubated in a 5% carbon dioxide gas incubator at 37° C. for 72 hours. The cytostatic rate (%) was then determined in the same way as the leukemia cell lines.

SMILES	inhibition at 10 µM [1] [%]	inhibition at 10 µM [2] [%]	inhibition at 10 µM [3] [%]	inhibition at 10 µM [4] [%]	cytostatic rate MV-4-11 (%) (10 μmol/L) [1]	cytostatic rate ML-1 (%) (10 μmol/L) [2]	cytostatic rate K562 (%) (10 μmol/L) [3]
CN(C)C(=O)c1ccc(/C=C/c2n[nH]c3ccccc23)cc1 [Compound 1, (E)-N,N-Dimethyl-4-[2-(1H-indazol-3-yl)vinyl]benzamide]	98	93	95				
CS(=O)(=O)Nc1cc(/C=C/c2n[nH]c3ccccc23)ccc1OCCN1CCOCC1 [Compound 7, (E)-N-{5-[2-(1H-Indazol-3-yl)vinyl]-2-(2-morpholinoethoxy)phenyl}methanesulfonamide]	97	97	98	89			
NC(=O)c1cc(/C=C/c2n[nH]c3ccccc23)ccc1OCCN1CCOCC1 [Compound 8, (E)-5-[2-(1H-Indazol-3-yl)vinyl]-2-(2-morpholinoethoxy)benzamide]	95	84	95				
O=C(c1ccc(/C=C/c2n[nH]c3ccccc23)cc1)N1CCOCC1 [Compound 9, (E)-1{4-[2-(1H-indazol-3-yl)vinyl]benzoyl}morpholine]					91	90	98
O=C(NCCN1CCOCC1)c1ccc(/C=C/c2n[nH]c3ccccc23)cc1 [Compound 10, (E)-N-(2-morpholinoethyl)-4-[2-(1H-indazol-3-yl)vinyl]benzamide]	91	83	99	41			
CC(=O)N1CCN(C(=O)c2ccc(/C=C/c3n[nH]c4ccccc34)cc2)CC1 [Compound 13, (E)-4-Acetyl-1-{4-[2-(1H-indazol-3-yl)vinyl]benzoyl}piperazine]	94	90	99				
CNC(=O)c1ccc(/C=C/c2n[nH]c3ccccc23)cc1 [Compound 14, (E)-N-Methyl-4-[2-(1H-indazol-3-yl)vinyl]benzamide]	76	84	98				
CCN(CC)C(=O)c1ccc(/C=C/c2n[nH]c3ccccc23)cc1 [Compound 15, (E)-N,N-Diethyl-4-[2-(1H-indazol-3-yl)vinyl]benzamide hydrochloride]	91	94	100	92			
Cl.O=C(c1ccc(/C=C/c2n[nH]c3ccccc23)cc1)N1CCC2(CC1)OCCO2 [Compound 16, (E)-4-ethylenedioxy-1-{4-[2-(1H-indazol-3-yl)vinyl]benzoyl}piperidine hydrochloride]					89	97	94
O=C(c1ccc(/C=C/c2n[nH]c3ccccc23)cc1)N1CCNCC1 [Compound 18, (E)-1-{4-[2-(1H-indazol-3-yl)vinyl]benzoyl}piperazine]	98	76	91	85			
O=CN1CCN(C(=O)c2ccc(/C=C/c3n[nH]c4ccccc34)cc2)CC1 [Compound 19, (E)-4-{4-[2-(1H-indazol-3-yl)vinyl]benzoyl}piperazine-1-carbaldehyde]	97	89	78	89			
CS(=O)(=O)Nc1cccc(/C=C/c2n[nH]c3ccccc23)c1 [Compound 27, (E)-N-{3-[2-(1H-indazol-3-yl)vinyl]phenyl}methanesulfonamide]	94	77	55	80			
CCOC(=O)N1CCN(C(=O)c2ccc(/C=C/c3n[nH]c4ccccc34)cc2)CC1 [Compound 32, (E)-1-{4-[2-(1H-indazol-3-yl)vinyl]benzoyl}-4-ethoxycarbonylpiperazine]	94	80	86	85			
